The values below come from patent US9790253B2, “OSW-1 analogs and conjugates, and uses thereof” (priority 2011, dated 2017).

One test deals with T1, OSBP1-myc-his (Homo sapiens, UniProt P22059).
T1 construct: made in house; host or cells: HEK-293T (transient transfection; S100 lysate, not purified)
T1 sequence (P22059 1-807): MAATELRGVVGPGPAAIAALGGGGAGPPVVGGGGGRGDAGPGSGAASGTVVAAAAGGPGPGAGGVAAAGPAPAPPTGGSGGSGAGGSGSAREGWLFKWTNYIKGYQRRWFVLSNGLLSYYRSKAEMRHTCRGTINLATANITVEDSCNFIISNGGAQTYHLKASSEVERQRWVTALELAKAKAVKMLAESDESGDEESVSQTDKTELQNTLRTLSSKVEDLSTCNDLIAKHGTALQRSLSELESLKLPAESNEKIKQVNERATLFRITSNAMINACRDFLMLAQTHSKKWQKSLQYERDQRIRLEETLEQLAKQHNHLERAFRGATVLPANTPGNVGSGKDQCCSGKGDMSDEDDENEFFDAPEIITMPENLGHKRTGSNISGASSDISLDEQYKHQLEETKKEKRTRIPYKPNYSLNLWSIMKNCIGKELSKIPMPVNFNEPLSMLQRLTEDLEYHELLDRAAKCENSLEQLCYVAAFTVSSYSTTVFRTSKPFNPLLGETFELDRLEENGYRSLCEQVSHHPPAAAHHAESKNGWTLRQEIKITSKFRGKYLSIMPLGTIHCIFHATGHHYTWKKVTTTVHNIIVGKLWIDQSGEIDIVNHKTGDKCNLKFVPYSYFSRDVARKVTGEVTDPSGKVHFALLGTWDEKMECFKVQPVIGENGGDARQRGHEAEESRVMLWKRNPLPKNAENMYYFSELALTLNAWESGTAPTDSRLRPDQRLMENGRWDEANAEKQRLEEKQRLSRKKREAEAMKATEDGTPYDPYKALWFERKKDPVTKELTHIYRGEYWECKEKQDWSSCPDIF
Briefly: [3H]-25-hydroxycholesterol charcoal-dextran binding assay with OSBP1-myc-his. Particulars: for Ki: competition with 20 nM [3H]-25-OHC, HEK-293T S100 lysate, 4° C., 16 h, read-out: [^3H]-25-OHC K1 (nM) OSBP1-myc-his. The source says:
(§1) [^3H]-25-Hydroxycholesterol charcoal-dextran binding assay.
Methods are described above in the General Methods section.

For another test, the target named is T2, OSBP1(M446W) (Homo sapiens, UniProt P22059, M446W).
T2 construct: made in house; host or cells: HEK-293T (transient transfection; S100 lysate, not purified)
T2 sequence (P22059 1-807 M446W): T1 sequence (P22059 1-807) with M446W
The test can be described thus: [3H]-25-OHC binding, OSBP1(M446W) mutant. Particulars: for binding affinity for OSBP1(M446W) compared to wt OSBP1-myc-his: [3H]-25-OHC competition binding. As for the experimental part:
as §1
The binding affinity of 1, 2 and 4a to the OSBP1(M446W) and OSBP1(V582M) mutants were then determined using [^3H]-25-OHC competition binding. […] Within error limits, the binding affinity of 1, 2 and 4a for these two OSBP1 mutants were unchanged compared to wt OSBP1-myc-his (FIG. 4D).

The subject of test [1] is OSBP1 localization in HCT-116 cells. The test can be described thus: OSBP1 localization by immunofluorescence microscopy, HCT-116. The conditions noted are these: 4 h treatment. Type of test: cell-based, human. As for the experimental part: Immunofluorescence microscopy. HCT-116 or A549 (adenocarcinomic human alveolar basal epithelial) cells were plated on coverslips in 6-well plates. After 72 h, the culture media was removed and replaced with media containing either compound or vehicle control. At the indicated time-points, the cells were fixed for 10 min using 3.7% formaldehyde in PBS. The coverslips were washed with PBS and permeabilized for 5 min with 0.5% Triton X-100 in PBS. Following PBS washing, the coverslips were blocked for 30 min using Image-iT™ FX (Invitrogen), washed with PBS, and then blocked for 30 min at room temperature (RT) with 1% BSA in PBS (BSA/PBS). The coverslips were then incubated overnight at 4° C. with a primary antibody solution in BSA/PBS. The coverslips were washed with BSA/PBS and incubated for 60 min at RT with Alexa Fluor®-conjugated secondary antibodies (Invitrogen) in BSA/PBS, with the final 30 min including incubation with Hoescht 33258. The coverslips were then washed sequentially with BSA/PBS, PBS, and water and finally mounted on microscope slides using Aqua Poly/Mount (Polysciences Inc.). Imaging data was acquired using Zeiss LSM 510 META scanning confocal microscope.
Although the function of OSBP1 is not yet fully elucidated, several cellular activities have been observed. For instance, OSBP1 translocates from cytoplasmic sites to the trans-Golgi network (TGN) upon addition of 25-OHC to cells. HCT-116 cells were treated with ORPphilins for short time periods (4 h) and the effects on OSBP1 localization monitored using immunofluorescence microscopy.
OSBP1 (green) and trans-Golgi protein P230 (red) were visualized in HCT-116 cells using indirect immunofluorescence microscopy. Cells were treated with compound for 4 h, fixed with 3.7% formaldehyde/PBS, washed, and permeabilized using 0.5% Triton X-100 in PBS. Proteins were labelled using specific primary antibodies against OSBP1 and P230 overnight at 4° C. After washing, cells were treated with Alexa Fluor 488 and Alexa Fluor 546 secondary antibodies for 1 h at RT.

The next test relates to NCI-60. The conditions noted are these: read-out: average GI50 against the NCI-60; cited from earlier work.

Substitutions are numbered along the chain they refer to.

For orientation: Kd means the equilibrium constant for the complex coming apart. Low values mean tighter binding, high ones weaker binding. In turn, `C[C@H](CCCC(C)(C)O)[C@H]1CC[C@H]2[C@@H]3CC=C4C[C@@H](O)CC[C@]4(C)[C@H]3CC[C@]12C` [Compound 25-OHC, 25-hydroxycholesterol] yielded a Kd on OSBP1-myc-his (direct binding) of 32 ± 14 nM. Also, on OSBP1(M446W), the “binding affinity of 25-OHC for OSBP1(M446W) compared to wt” value is “identical to wt”.

By GI50 is commonly meant the concentration that inhibits growth by half. `COc1ccc(C(=O)O[C@H]2[C@H](O[C@@H]3[C@@H](OC(C)=O)[C@H](O[C@H]4C[C@H]5[C@@H]6CC=C7C[C@@H](O)CC[C@]7(C)[C@H]6CC[C@]5(C)[C@@]4(O)[C@H](C)C(=O)CCC(C)C)OC[C@@H]3O)OC[C@@H](O)[C@@H]2O)cc1` [OSW-1]: the Ki at OSBP1-myc-his stood at 26 ± 9 nM. Moreover, on OSBP1(M446W), the “binding affinity for OSBP1(M446W) compared to wt OSBP1-myc-his” value is “unchanged”. Besides, the OSBP1 localization result in test [1] is reported as “caused OSBP1 to localize to a perinuclear position that did not co-localize with p230”. Also, the GI50 in the test on NCI-60 is 0.78 nM.

With `C[C@@H]1[C@]2(O[C@H]3C=C4[C@@H]5CC[C@H]6Cc7nc8c(nc7C[C@]6(C)[C@H]5C[C@@H](O)[C@]4(C)[C@]31O)C[C@@H]1CC[C@H]3C4=CC[C@@H]5[C@H](C)[C@@]6(OC[C@]45C(=O)C[C@@H]3[C@@]1(C)C8)OC(C)(C)C[C@H]6O)O[C@](C)(CO)C[C@H]2O` [cephalostatin 1, Cephalostatin 1], the Ki on OSBP1-myc-his turned out to be 39 ± 10 nM. Further, on OSBP1(M446W), the “binding affinity for OSBP1(M446W) compared to wt OSBP1-myc-his” value is recorded as “unchanged”. The OSBP1 localization entry in test [1] is listed as “OSBP1 occupying a perinuclear position with little co-localization of the dispersed p230 marker”; in test [1] (listed as 1), “partially localize to the plasma membrane”.

schweinfurthin A: the Ki at OSBP1-myc-his came to 68 ± 23 nM. The “binding affinity for OSBP1(M446W) compared to wt OSBP1-myc-his” value at OSBP1(M446W) is on record as “unchanged”. Also, the OSBP1 localization result in test [1] is given as “caused OSBP1 to accumulate at perinuclear positions with a large degree of co-localization with the trans-Golgi marker p230”. The GI50 in the test on NCI-60 was 360 nM.
